Experimental data published in patent US8871756B2 (Hoffmann-La Roche Inc., priority 2011, dated 2014).

Tested on: RSV Long strain
Test: Viral cytopathic effect (CPE) assay, anti-RSV activity
Format: cell-based, Respiratory Syncytial Virus
Conditions: human respiratory syncytial virus, 144 h, RSV Long strain (ATCC); cell viability after 6 days, Cell Counting kit-8
In short: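 Cells (6×10^3/well, DMEM with 10% FBS) were infected next day with RSV Long strain, at a dose giving approximately 80–90% CPE, alongside serial half-log compound dilutions. Viability was read after 6 days by CCK-8 absorbance at 450 nm (reference 630 nm), and EC50 was derived from it.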

SMILES | EC50 [µM]
Cc1ccc2nc(N3CCS(=O)(=O)c4ccccc4C3)cc(NCC3(CN)CS(=O)(=O)C3)c2c1 [Example 6-2, N-{[3-(Aminomethyl)-1,1-dioxidothietan-3-yl]methyl}-2-(1,1-dioxido-2,3-dihydro-1,4-benzothiazepin-4(5H)-yl)-6-methylquinolin-4-amine] | 0.908
Cc1ccc2nc(N3CCS(=O)(=O)c4ccccc4C3)cc(NC3=NCCN3)c2c1 [Example 7, N-(4,5-Dihydro-1H-imidazol-2-yl)-2-(1,1-dioxido-2,3-dihydro-1,4-benzothiazepin-4(5H)-yl)-6-methylquinolin-4-amine] | 1.42
Cc1ccc2nc(N3CCS(=O)(=O)c4ccccc4C3)cc(N[C@H]3CC[C@H](O)CC3)c2c1 [Example 8-1, trans-4-{[2-(1,1-Dioxido-2,3-dihydro-1,4-benzothiazepin-4(5H)-yl)-6-methylquinolin-4-yl]amino}cyclohexanol] | 5.51
Cc1ccc2nc(N3CCS(=O)(=O)c4ccccc4C3)cc(N[C@@H](C)CO)c2c1 [Example 8-2, (2S)-2-{[2-(1,1-Dioxido-2,3-dihydro-1,4-benzothiazepin-4(5H)-yl)-6-methylquinolin-4-yl]amino}propan-1-ol] | 0.817
Cc1ccc2nc(N3CCS(=O)(=O)c4ccccc4C3)cc(N3C[C@@H]4NCCO[C@@H]4C3)c2c1 [Example 8-5, 4-{4-[(4aS,7aR)-Hexahydropyrrolo[3,4-b][1,4]oxazin-6(2H)-yl]-6-methylquinolin-2-yl}-2,3,4,5-tetrahydro-1,4-benzothiazepine 1,1-dioxide] | 0.074
Cc1ccc2nc(N3CCS(=O)(=O)c4ccccc4C3)cc(N3C[C@@H](O)[C@H](N4CCN(C)CC4)C3)c2c1 [Example 8-6, (3R,4R)-1-[2-(1,1-Dioxido-2,3-dihydro-1,4-benzothiazepin-4(5H)-yl)-6-methylquinolin-4-yl]-4-(4-methylpiperazin-1-yl)pyrrolidin-3-ol] | 3.77
Cc1ccc2nc(N3CCS(=O)(=O)c4ccccc4C3)cc(N3CCC(CN)CC3)c2c1 [Example 9-1, 1-{1-[2-(1,1-Dioxido-2,3-dihydro-1,4-benzothiazepin-4(5H)-yl)-6-methylquinolin-4-yl]piperidin-4-yl}methanamine] | 2.35
COc1ccc2c(c1)S(=O)(=O)CCN(c1cc(NCCO)c3ccccc3n1)C2 [Example 9-2, 2-{[2-(8-M ethoxy-1,1-dioxido-2,3-dihydro-1,4-benzothiazepin-4(5 H)-yl)quinolin-4-yl]amino}ethanol] | 4.77
Cc1ccc2nc(N3CCS(=O)(=O)c4ccccc4C3)cc(N3CCOCC3)c2c1 [Example 9-4, 4-[6-Methyl-4-(morpholin-4-yl)quinolin-2-yl]-2,3,4,5-tetrahydro-1,4-benzothiazepine 1,1-dioxide] | 8.87
NCCNc1cc(N2CCS(=O)(=O)c3ccccc3C2)nc2ccc(F)cc12 [Example 9-9, N-[2-(1,1-Dioxido-2,3-dihydro-1,4-benzothiazepin-4(5H)-yl)-6-fluoroquinolin-4-yl]ethane-1,2-diamine] | 0.157
CCc1ccc2nc(N3CCS(=O)(=O)c4ccccc4C3)cc(NCCN)c2c1 [Example 9-10, N-[2-(1,1-Dioxido-2,3-dihydro-1,4-benzothiazepin-4(5H)-yl)-6-ethylquinolin-4-yl]ethane-1,2-diamine] | 0.037
NCCCNc1cc(N2CCS(=O)(=O)c3ccccc3C2)nc2cc(Cl)ccc12 [Example 9-11, N-[7-Chloro-2-(1,1-dioxido-2,3-dihydro-1,4-benzothiazepin-4(5H)-yl)quinolin-4-yl]propane-1,3-diamine] | 0.953
NCCCNc1cc(N2CCS(=O)(=O)c3ccccc3C2)nc2c(Cl)cccc12 [Example 9-12, N-[8-Chloro-2-(1,1-dioxido-2,3-dihydro-1,4-benzothiazepin-4(5H)-yl)quinolin-4-yl]propane-1,3-diamine] | 2.66
NCCCNc1cc(N2CCS(=O)(=O)c3ccccc3C2)nc2cccc(Cl)c12 [Example 9-13, N-[5-Chloro-2-(1,1-dioxido-2,3-dihydro-1,4-benzothiazepin-4(5H)-yl)quinolin-4-yl]propane-1,3-diamine] | 0.701
NCCNc1cc(N2CCS(=O)(=O)c3ccccc3C2)nc2ccccc12 [Example 9-15, N-[2-(1,1-Dioxido-2,3-dihydro-1,4-benzothiazepin-4(5H)-yl)quinolin-4-yl]ethane-1,2-diamine] | 0.012
Cc1ccc2nc(N3CCS(=O)(=O)c4ccccc4C3)cc(NC(C)CN)c2c1 (stereo not shown) [Example 9-18, N^˜2^˜-[2-(1,1-Dioxido-2,3-dihydro-1,4-benzothiazepin-4(5H)-yl)-6-methylquinolin-4-yl]propane-1,2-diamine] | 0.01

Other lines, results leading:

EC50 [µM] | SMILES
0.322 | Cc1ccc2nc(N3CCS(=O)(=O)c4ccccc4C3)cc(NCCSCCN)c2c1 [Example 8-7, N-{2-[(2-Aminoethyl)sulfanyl]ethyl}-2-(1,1-dioxido-2,3-dihydro-1,4-benzothiazepin-4(5H)-yl)-6-methylquinolin-4-amine]
0.001 | Cc1ccc2nc(N3CCS(=O)(=O)c4ccccc4C3)cc(NCCCN)c2c1 [Example 9-3, N-[2-(1,1-Dioxido-2,3-dihydro-1,4-benzothiazepin-4(5H)-yl)-6-methylquinolin-4-yl]propane-1,3-diamine]
0.179 | Cc1ccc2nc(N3CCS(=O)(=O)c4ccccc4C3)cc(NCCCO)c2c1 [Example 9-5, 3-{[2-(1,1-Dioxido-2,3-dihydro-1,4-benzothiazepin-4(5H)-yl)-6-methylquinolin-4-yl]amino}propan-1-ol]
0.275 | Cc1ccc2nc(N3CCS(=O)(=O)c4ccccc4C3)cc(NCCN3CCCCC3)c2c1 [Example 9-6, 2-(1,1-Dioxido-2,3-dihydro-1,4-benzothiazepin-4(5H)-yl)-6-methyl-N-[2-(piperidin-1-yl)ethyl]quinolin-4-amine]
0.002 | Cc1ccc2nc(N3CCS(=O)(=O)c4ccccc4C3)cc(NCC(O)CN)c2c1 (stereo not shown) [Example 9-7, 1-Amino-3-{[2-(1,1-dioxido-2,3-dihydro-1,4-benzothiazepin-4(5H)-yl)-6-methylquinolin-4-yl]amino}propan-2-ol]
3.48 | Cc1ccc2nc(N3CCS(=O)(=O)c4ccccc4C3)cc(NCC(=O)O)c2c1 [Example 9-8, N-[2-(1,1-Dioxido-2,3-dihydro-1,4-benzothiazepin-4(5H)-yl)-6-methylquinolin-4-yl]glycine]
0.025 | Cc1ccc2nc(N3CCS(=O)(=O)c4ccccc4C3)cc(NCC(C)(C)CN)c2c1 [Example 9-14, N-[2-(1,1-Dioxido-2,3-dihydro-1,4-benzothiazepin-4(5H)-yl)-6-methylquinolin-4-yl]-2,2-dimethylpropane-1,3-diamine]
0.005 | Cc1ccc2nc(N3CCS(=O)(=O)c4ccccc4C3)cc(NCCN)c2c1 [Example 9-16, N-[2-(1,1-Dioxido-2,3-dihydro-1,4-benzothiazepin-4(5H)-yl)-6-methylquinolin-4-yl]ethane-1,2-diamine]
0.025 | Cc1ccc2nc(N3CCS(=O)(=O)c4ccccc4C3)cc(NC(C)(C)CN)c2c1 [Example 9-17, N^˜2^˜-[2-(1,1-Dioxido-2,3-dihydro-1,4-benzothiazepin-4(5H)-yl)-6-methylquinolin-4-yl]-2-methylpropane-1,2-diamine]
